Species on record: Rattus norvegicus
Test: DrugMatrix - Regimen: Daily Repeat
Format: toxicity, organism-based, Sprague-Dawley
Set-up: regimen Daily Repeat, gender Male, age 6-8 weeks
Conditions: in vivo, ip, 0 mg/kg, route intraperitoneal, dose level Control, vehicle 100 % SALINE; for ABSOLUTE BASOPHIL / ABSOLUTE EOSINOPHIL / ABSOLUTE LYMPHOCYTE / ABSOLUTE MONOCYTE / ABSOLUTE SEGMENTED NEUTROPHIL / BASOPHIL / EOSINOPHIL / ERYTHROCYTE COUNT / HEMATOCRIT / HEMOGLOBIN / LEUKOCYTE COUNT / LYMPHOCYTE / MEAN CORPUSCULAR HEMOGLOBIN / MEAN CORPUSCULAR HEMOGLOBIN CONCENTRATION / MEAN CORPUSCULAR VOLUME / MONOCYTE / NEUTROPHIL / NUCLEATED RED BLOOD CELLS / PLATELET COUNT: tissue Blood; for ALANINE AMINOTRANSFERASE / ALKALINE PHOSPHATASE / ASPARTATE AMINOTRANSFERASE / BLOOD UREA NITROGEN / CARBON DIOXIDE / CHLORIDE / CHOLESTEROL / CREATININE / GLUCOSE / LACTATE DEHYDROGENASE / LIPASE / PHOSPHORUS / POTASSIUM / SODIUM / TOTAL BILIRUBIN / TOTAL PROTEIN / URIC ACID: tissue Plasma

CC[C@H]1CN2CCc3cc(OC)c(OC)cc3[C@@H]2C[C@@H]1C[C@H]1NCCc2cc(OC)c(OC)cc21 [EMETINE]
ABSOLUTE BASOPHIL (72 h, time 3 day): 0 CELLS/uL
ABSOLUTE EOSINOPHIL (72 h, time 3 day): 109.67 CELLS/uL
ABSOLUTE LYMPHOCYTE (72 h, time 3 day): 11168.33 CELLS/uL
ABSOLUTE MONOCYTE (72 h, time 3 day): 226.17 CELLS/uL
ABSOLUTE SEGMENTED NEUTROPHIL (72 h, time 3 day): 695.83 CELLS/uL
BASOPHIL (72 h, time 3 day): 0%
EOSINOPHIL (72 h, time 3 day): 0.83%
ERYTHROCYTE COUNT (72 h, time 3 day): 6.2 x10E6/uL
HEMATOCRIT (72 h, time 3 day): 37.68%
HEMOGLOBIN (72 h, time 3 day): 13.67 G/DL
LEUKOCYTE COUNT (72 h, time 3 day): 12.2 x10E3/uL
LYMPHOCYTE (72 h, time 3 day): 91.83%
MEAN CORPUSCULAR HEMOGLOBIN (72 h, time 3 day): 22.08 pg
MEAN CORPUSCULAR HEMOGLOBIN CONCENTRATION (72 h, time 3 day): 36.3 G/DL
MEAN CORPUSCULAR VOLUME (72 h, time 3 day): 60.77 fL
MONOCYTE (72 h, time 3 day): 1.83%
NEUTROPHIL (72 h, time 3 day): 5.5%
NUCLEATED RED BLOOD CELLS (72 h, time 3 day): 0 /100WBC
PLATELET COUNT (72 h, time 3 day): 755.67 x10E3/uL
ALANINE AMINOTRANSFERASE (72 h, time 3 day): 60.83 u/L
ALKALINE PHOSPHATASE (72 h, time 3 day): 392.5 u/L
ASPARTATE AMINOTRANSFERASE (72 h, time 3 day): 97 u/L
BLOOD UREA NITROGEN (72 h, time 3 day): 16.5 mg/dL
CARBON DIOXIDE (72 h, time 3 day): 29.83 mmol/L
CHLORIDE (72 h, time 3 day): 101.83 MEQ/L
CHOLESTEROL (72 h, time 3 day): 72.5 mg/dL
CREATININE (72 h, time 3 day): 0.28 mg/dL
GLUCOSE (72 h, time 3 day): 195.33 mg/dL
LACTATE DEHYDROGENASE (72 h, time 3 day): 240.33 u/L
LIPASE (72 h, time 3 day): 9.67 u/L
PHOSPHORUS (72 h, time 3 day): 12.47 mg/dL
POTASSIUM (72 h, time 3 day): 6.15 MEQ/L
SODIUM (72 h, time 3 day): 145.38 MEQ/L
TOTAL BILIRUBIN (72 h, time 3 day): 0.17 mg/dL
TOTAL PROTEIN (72 h, time 3 day): 6.7 G/DL
URIC ACID (72 h, time 3 day): 2.42 mg/dL
ABSOLUTE BASOPHIL (120 h, time 5 day): 0 CELLS/uL
ABSOLUTE EOSINOPHIL (120 h, time 5 day): 50 CELLS/uL
ABSOLUTE LYMPHOCYTE (120 h, time 5 day): 12777 CELLS/uL
ABSOLUTE MONOCYTE (120 h, time 5 day): 280.67 CELLS/uL
ABSOLUTE SEGMENTED NEUTROPHIL (120 h, time 5 day): 875.67 CELLS/uL
BASOPHIL (120 h, time 5 day): 0%
EOSINOPHIL (120 h, time 5 day): 0.5%
ERYTHROCYTE COUNT (120 h, time 5 day): 6.42 x10E6/uL
HEMATOCRIT (120 h, time 5 day): 39.13%
HEMOGLOBIN (120 h, time 5 day): 14.17 G/DL
LEUKOCYTE COUNT (120 h, time 5 day): 13.98 x10E3/uL
LYMPHOCYTE (120 h, time 5 day): 90.83%
MEAN CORPUSCULAR HEMOGLOBIN (120 h, time 5 day): 22.1 pg
MEAN CORPUSCULAR HEMOGLOBIN CONCENTRATION (120 h, time 5 day): 36.2 G/DL
MEAN CORPUSCULAR VOLUME (120 h, time 5 day): 61.07 fL
MONOCYTE (120 h, time 5 day): 2%
NEUTROPHIL (120 h, time 5 day): 6.67%
NUCLEATED RED BLOOD CELLS (120 h, time 5 day): 0 /100WBC
PLATELET COUNT (120 h, time 5 day): 838.67 x10E3/uL
ALANINE AMINOTRANSFERASE (120 h, time 5 day): 56.5 u/L
ALKALINE PHOSPHATASE (120 h, time 5 day): 316.5 u/L
ASPARTATE AMINOTRANSFERASE (120 h, time 5 day): 131 u/L
BLOOD UREA NITROGEN (120 h, time 5 day): 14.33 mg/dL
CARBON DIOXIDE (120 h, time 5 day): 29.83 mmol/L
CHLORIDE (120 h, time 5 day): 100.5 MEQ/L
CHOLESTEROL (120 h, time 5 day): 65.83 mg/dL
CREATININE (120 h, time 5 day): 0.23 mg/dL
GLUCOSE (120 h, time 5 day): 268.83 mg/dL
LACTATE DEHYDROGENASE (120 h, time 5 day): 343 u/L
LIPASE (120 h, time 5 day): 9.33 u/L
PHOSPHORUS (120 h, time 5 day): 13.95 mg/dL
POTASSIUM (120 h, time 5 day): 5.37 MEQ/L
SODIUM (120 h, time 5 day): 146.53 MEQ/L
TOTAL BILIRUBIN (120 h, time 5 day): 0.12 mg/dL
TOTAL PROTEIN (120 h, time 5 day): 6.37 G/DL
URIC ACID (120 h, time 5 day): 1.97 mg/dL
ABSOLUTE BASOPHIL ([…], time 14 day): 0 CELLS/uL
ABSOLUTE EOSINOPHIL ([…], time 14 day): 111.67 CELLS/uL
ABSOLUTE LYMPHOCYTE ([…], time 14 day): 12370.33 CELLS/uL
ABSOLUTE MONOCYTE ([…], time 14 day): 653.33 CELLS/uL
ABSOLUTE SEGMENTED NEUTROPHIL ([…], time 14 day): 1414.67 CELLS/uL
BASOPHIL ([…], time 14 day): 0%
EOSINOPHIL ([…], time 14 day): 0.67%
ERYTHROCYTE COUNT ([…], time 14 day): 6.03 x10E6/uL
HEMATOCRIT ([…], time 14 day): 36.65%
HEMOGLOBIN ([…], time 14 day): 13.4 G/DL
LEUKOCYTE COUNT ([…], time 14 day): 14.55 x10E3/uL
LYMPHOCYTE ([…], time 14 day): 85.33%
MEAN CORPUSCULAR HEMOGLOBIN ([…], time 14 day): 22.27 pg
MEAN CORPUSCULAR HEMOGLOBIN CONCENTRATION ([…], time 14 day): 36.58 G/DL
MEAN CORPUSCULAR VOLUME ([…], time 14 day): 60.85 fL
MONOCYTE ([…], time 14 day): 4.5%
NEUTROPHIL ([…], time 14 day): 9.5%
NUCLEATED RED BLOOD CELLS ([…], time 14 day): 0 /100WBC
PLATELET COUNT ([…], time 14 day): 942 x10E3/uL
ALANINE AMINOTRANSFERASE ([…], time 14 day): 53.33 u/L
ALKALINE PHOSPHATASE ([…], time 14 day): 293.67 u/L
ASPARTATE AMINOTRANSFERASE ([…], time 14 day): 96.83 u/L
BLOOD UREA NITROGEN ([…], time 14 day): 15.5 mg/dL
CARBON DIOXIDE ([…], time 14 day): 32.17 mmol/L
CHLORIDE ([…], time 14 day): 101.33 MEQ/L
CHOLESTEROL ([…], time 14 day): 64 mg/dL
CREATININE ([…], time 14 day): 0.25 mg/dL
GLUCOSE ([…], time 14 day): 178.67 mg/dL
LACTATE DEHYDROGENASE ([…], time 14 day): 179.5 u/L
LIPASE ([…], time 14 day): 9.17 u/L
PHOSPHORUS ([…], time 14 day): 10.88 mg/dL
POTASSIUM ([…], time 14 day): 5.91 MEQ/L
SODIUM ([…], time 14 day): 145.68 MEQ/L
TOTAL BILIRUBIN ([…], time 14 day): 0.2 mg/dL
TOTAL PROTEIN ([…], time 14 day): 6.38 G/DL
URIC ACID ([…], time 14 day): 1.12 mg/dL
